From paper PMC6017357, “In Vitro Inhibitory Effects of Synthetic Cannabinoid EAM-2201 on Cytochrome P450 and UDP-Glucuronosyltransferase Enzyme Activities in Human Liver Microsomes” (Molecules : A Journal of Synthetic Chemistry and Natural …, 2018)

Target: T1, UGT1A9 (Homo sapiens, UniProt O60656)
T1 construct: ultrapooled human liver microsomes (0.2 mg/mL), 5 mM UDPGA; from tissue; host or cells: ultrapooled human liver microsomes
T1 sequence (O60656 26-530): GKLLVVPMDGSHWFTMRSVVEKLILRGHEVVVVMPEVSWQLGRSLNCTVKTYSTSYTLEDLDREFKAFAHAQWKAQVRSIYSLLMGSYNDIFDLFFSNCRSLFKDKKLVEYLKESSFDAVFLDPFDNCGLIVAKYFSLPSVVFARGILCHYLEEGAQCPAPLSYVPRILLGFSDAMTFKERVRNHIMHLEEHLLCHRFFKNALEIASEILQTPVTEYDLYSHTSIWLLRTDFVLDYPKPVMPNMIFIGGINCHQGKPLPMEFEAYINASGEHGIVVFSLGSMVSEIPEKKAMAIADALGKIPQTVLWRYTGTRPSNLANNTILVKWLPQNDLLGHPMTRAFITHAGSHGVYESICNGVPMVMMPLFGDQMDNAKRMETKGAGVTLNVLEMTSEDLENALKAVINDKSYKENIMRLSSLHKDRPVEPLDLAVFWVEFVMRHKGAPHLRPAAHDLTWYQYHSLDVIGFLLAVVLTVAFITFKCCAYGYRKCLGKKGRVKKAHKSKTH
Test: UGT1A9-catalyzed mycophenolic acid glucuronidation in human liver microsomes
Format: in vitro ADME
Settings: at 50 µM
Description: The inhibitory effects of EAM-2201 on UGT1A1, UGT1A3, UGT1A4, UGT1A6, UGT1A9 and UGT2B7 were evaluated using LC-MS/MS and the cocktail of UGT substrates as previously described. Each incubation mixture was prepared in a final volume of 100 µL as follows: ultrapooled human liver microsomes (0.2 mg/mL), 5 mM UDPGA, 10 mM magnesium chloride, alamethicin (25 µg/mL), 50 mM Tris buffer (pH 7.4), various concentrations of EAM-2201 in DMSO (final concentrations of 1–50 µM, 0.5% DMSO) and the UGT enzyme-specific substrates of two cocktail sets (set A: 0.5 µM SN-38, 2 µM chenodeoxycholic acid and 0.5 µM trifluoperazine; set B: 1 µM N-acetylserotonin, 0.2 µM mycophenolic acid and 1 µM naloxone, acetonitrile content, 0.5%). […] Supernatant from sets A and B (50 µL of each) was mixed and aliquots (5 µL) were analyzed by LC-MS/MS. […]
The metabolites formed from the six UGT cocktail substrates were simultaneously measured using LC-MS/MS [41]. […] Each metabolite was quantified via SRM in the negative ion mode: chenodeoxycholic acid 24-acyl-β-glucuronide, 567.2 > 391.0; mycophenolic acid glucuronide, 495.2 > 318.9; and propofol glucuronide (IS), 353.3 > 177.1; and in the positive ion mode: SN-38 glucuronide, 569.0 > 393.0; trifluoperazine glucuronide, 584.2 > 408.1; N-acetylserotonin-β-D-glucuronide, 395.2 > 219.0; naloxone 3-β-D-glucuronide, 504.0 > 310.0; and meloxicam (IS), 352.0 > 115.1. […]

In the case of `CCc1ccc(C(=O)c2cn(CCCCCF)c3ccccc23)c2ccccc12` [EAM-2201, (4-ethyl-1-naphthalenyl)[1-(5-fluoropentyl)-1H-indol-3-yl]-methanone], the “inhibition of UGT1A9-catalyzed mycophenolic acid glucuronidation” value is reported as “negligibly inhibited”.
